From patent US8865672B2, “Prevention of tissue ischemia and related methods” (The United States of America, as represented by the …, priority 2006, dated 2014)
One block for each compound: values may come before it. Peptide text beside a SMILES is read from it. * marks the point of attachment. Biotin = O=C1N[C@H]2[C@H](CS[C@H]2CCCCC(=O)*)N1

Key:
[1] = system: HUVEC; experiment: Intracellular cGMP in HUVEC; assay type: cell-based, human; details: DEA/NO 10 μM
Experimental: HUVEC (10^4 cells/well) grown overnight in 96-well culture plates containing full growth medium with 2% FCS and weaned in growth medium without additives and 1% FCS over 24 hrs before treatment with NO donors and other agents in SM-GM without additives+0.1% BSA. Intracellular cGMP levels were determined according to the manufacturer's instructions using an enzyme immunoassay kit (Amersham Biosciences). In other experiments ASMC from wild type and CD36 or CD47 null mice were plated onto 96-well culture plates and incubated overnight in full growth medium. They were then weaned off serum as described to SM-GM+0.1% BSA and treated with NO donor and other agents as indicated. Intracellular cyclic nucleotides were determined via immunoassay.

[2] = system: HASMC; experiment: NO-stimulated HASMC adhesion on type I collagen; assay type: cell-based, human; details: DEA/NO 10 μM
Experimental: Cell adhesion was carried out in 96-well culture plates. After pre-coating wells with type I collagen (3 μg/ml in DPBS) harvested cells were plated at a density of 1×10^4 cells/well in medium plus 0.1% BSA and treatment agents and incubated in 5% CO2 for 1 h. Wells were washed with PBS and cells fixed with 1% glutaraldehyde for 10 min., washed and stained with 1% crystal violet for 20 min. Excess stain was rinsed away, adherent cells treated with 10% acetic acid, and plates read at 570 nm.

[3] = system: HASMC; experiment: Intracellular cGMP in HASMC; assay type: cell-based, human; details: DEA/NO 10 μM, 5 minutes
[4] = system: NO/cGMP signaling; experiment: cGMP signaling (NO-stimulated cGMP, immunoassay); assay type: cell-based, human; details: concentration for 50% inhibition of effect
Experimental: (§1) Vascular cells (endothelial) or HT-1080 cells (10^4 cells/well) grown overnight in 12-well culture in SM-GM containing 2% FCS or RPMI+10% FCS respectively and then weaned off serum over 48 h before treatment with NO donors and other agents in serum/additive free medium+0.1% BSA. Intracellular cGMP levels were determined using an enzyme immunoassay (Amersham, GE Health Care, UK). In other experiments fresh washed human platelets were incubated in Tyrode's buffer and the indicated treatment agents±NO and cGMP determined.

[5] = system: VSMC and endothelial cells; experiment: NO-stimulated adhesion of VSMC and endothelial cells to type I collagen (Example 9); assay type: cell-based; details: 10 μM DEA/NO
Experimental: Vascular cells (VSMC or endothelial) were plated at 10,000 cells/well onto 96-well plates (Maxisorb, Nunc) precoated with type I collagen (3 μg/ml). […] Plates were then washed with PBS, fixed with glutaraldehyde, stained with crystal violet, and washed. Absorbed stain was solubilized with acetic acid from fixed cells and the resulting color signal determined on a MR580Microelisa Auto Reader, (Dynatech, Alexandria, Va.) at 450 nm wavelength.

[6] = system: endothelial cells and platelets; experiment: NO-stimulated cGMP flux in endothelial cells and platelets (Example 9); assay type: cell-based, human; details: 10 μM DEA/NO
Experimental: as §1
Endothelial cells (FIG. 62C) and platelets (FIG. 62D) in basal medium without serum or Tyrode's buffer respectively were treated with the indicated peptides±NO (10 μM DEA/NO) and cGMP levels determined.

[7] = biological target: T1, CD47 IgV domain / SIRP IgV domain (Homo sapiens, UniProt Q08722); experiment: ELISA of SIRP IgV domain binding to CD47 IgV domain; details: Fc-SIRP IgV on protein A plates, alkaline phosphatase-CD47 IgV
T1 construct: alkaline phosphatase fusions of the CD47 IgV domain
Text: SIRP-alpha (Signal Inhibitory Regulatory Protein Alpha; SIRPα) and the closely related SIRP-gamma (SIRPγ formerly called SIRP-beta) are two ligands of CD47. They consist of an N-terminal IgV set domain and variable numbers of 1 g domains followed by a transmembrane segment and variously spliced cytoplasmic tails, some of which contain phosphorylatable tyrosines that constitute docking sites for tyrosine phosphatases such as SHP-1 and SHP-2. The IgV domain of SIRP-alpha and -gamma are high affinity ligands of CD47 with species specificity thought to allow self vs. non-self discrimination by phagocytes. The binding of the IgV domain of SIRPα to the IgV domain of CD47 can be measured in a simple ELISA assay using recombinant versions of each protein. For this purpose we have employed Fc-fusions of SIRP IgV domain and alkaline phosphatase fusions of the CD47 IgV domain. The Fc-IgV protein is adsorbed to well plates coated with protein A to which the Fc binds. Potential inhibitors are added and the binding of alkaline phosphatase-conjugated CD47 IgV domain is measured by routine procedures.

[8] = system: human platelets; experiment: Thrombin-induced human platelet aggregation; assay type: cell-based; details: low shear, peptide 1 μM, 10 μM DEA/NO
Outline: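 Washed human platelets in Tyrode's buffer pH 7.4 (2×10^5/μl) are stirred at 1200 rpm and 37 °C, and optical aggregation is followed for 5 min; under static conditions, A400 is tracked for 5 min instead. TSP1 agents or 1 μM peptide C6d are pre-incubated for 15 min before thrombin ± DEA/NO (10 μM).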

[9] = system: murine WT and TSP1-null platelets; experiment: cGMP in murine platelets; assay type: cell-based, mouse; details: 100 μM added to Tyrode's
Experimental: After induction of general anesthesia with isoflurane 2%, age and sex matched C57BL/6 WT and TSP1-null mice underwent cardiac puncture. Blood was aspirated into 1 cc syringes with a 25 gauge needle containing 100 μl heparin (Heparin Lock Flush, Abbott, Chicago, Ill.), mixed with 100 μl 3% ACD and centrifuged in 1.2 ml S-Monovette separation tubes (Sarstedt, Germany). PRP was aspirated off, centrifuged, and the resulting platelet pellet was resuspended in 200 μl of Tyrode's buffer.
Fresh human platelets at 2×10^5 platelets/μl in Tyrode's buffer or PRP were pre-incubated with the indicated agents for 15 minutes and then challenged with DEA/NO for the indicated time interval at room temperature and total cGMP determined via immunoassay (Amersham, GE Healthcare, Buckinghamshire, UK). Murine WT and TSP1-null platelets were treated with DEA/NO and cGMP flux measured.

[10] = system: murine WT and TSP1-null platelets; experiment: Thrombin-induced murine platelet aggregation; assay type: cell-based, mouse; details: high shear
Experimental: Aggregation of human platelets under high shear conditions was assessed using a standard optical aggregometer (Lumi-Dual Aggregometer, Chrono-Log Corp., Havertown, Pa.) at 37° C. and 1200 rpm in a volume of 500 μl buffer with a final platelet concentration of 2×10^5 platelets/μl over a 5 minute interval. Pre-incubation with TSP1 and TSP1-based agents was for 15 minutes prior to addition of thrombin and/or the rapidly releasing nitric oxide donor DEA/NO. In some experiments platelets were pre-incubated with the Rap1 inhibitor GGTI-298 (10 μM) (Calbiochem, La Jolla, Calif.) for 30 minutes prior to initiating aggregation. In other high shear aggregation experiments murine platelets were prepared as above with the following modifications. Mouse blood was collected by retro-orbital bleeding of anesthetized mice using heparinized tubes. PRP was prepared and then diluted with 4 vol. of Tyrodes containing 5 mM EDTA to prevent activation. After collection by centrifugation, platelets were resuspended in 2× initial PRP volume and held at room temperature for less than 1 hour before use. […] Platelet aggregation under static conditions was assessed using a spectrophotometer (Beckman DU 640, Beckman Coulter, Fullerton, Calif.) and determined as a change in absorbance at 400 nm with continuous observation over a five minute interval. […]

[11] = system: VASP; experiment: Phospho-Ser239 VASP Western blotting in platelets; assay type: cell-based, human; details: 8Br-cGMP 100 μM, TSP1 2.2 nM
Experimental: Washed human platelets (resuspended in Tyrode's buffer to 3×10^8 platelets/mL to a final volume of 0.5 mL) were incubated at 37° C. for 30 minutes before treatment. TSP1 was added 15 minutes prior to treatment. Immediately following treatment, platelets were pelleted at 13,000×g at 4° C. for 15 seconds and resuspended in 1 mL of a lysis buffer containing 10 mM Tris-HCl (pH 7.5), 150 mM NaCl, 1 mM EDTA, 1 mM Na3VO4, 40 mM NaF, 1 μg/mL aprotinin, 1 μg/mL leupeptin, 1 mM phenylmethysulfonylfluoride and 1% […]. This suspension was placed at 4° C. with gentle agitation for 5 minutes before centrifugation at 13000×g for 5 minutes at 4° C. 5 μg lysates were electrophoresed on 4-12% Bis-Tris NuPAGE gels, transferred to Immobilon PVDF membranes and probed with a rabbit polyclonal antiserum against Serine 239-phosphorylated VASP (Santa Cruz Biotechnology, Santa Cruz, Calif.).

[12] = system: Rap1; experiment: Rap1 pulldown assay in platelets; assay type: cell-based, human; details: thrombin
Experimental: Platelets were diluted to 5×10^8 platelets/mL in Tyrode's buffer and treated with various reagents for the indicated times. Immediately following treatment, platelets were pelleted at 13,000 g for 30 seconds at 4° C. and resuspended in ice-cold lysis buffer containing 20 mM HEPES (pH 7.5), 100 mM NaCl, 10 mM EGTA, 20 mM MgCl2, 8 mM α-glycerophosphate, 1% Triton X-100, 1 mM phenylmethylsulfonylfluoride, 40 mM NaF, 1 mM Na3VO4, 10 μg/mL aprotinin, and 10 μg/mL leupeptin. Lysates were centrifuged at 13,000 g for 5 minutes at 4° C. and the supernatants were incubated for 15 minutes on a tumbler at 4° C. with glutathione Sepharose 4B beads (Amersham) prebound with a GST-Ral GDS RBD fusion protein (kind gift of J. Silvio Gutkind, NIH, Bethesda, Md.). Bead complexes were washed by centrifugation at 6,000 g for 30 seconds at 4° C. followed by resuspension in 0.5 mL lysis buffer; 2 washes were performed for each sample. After the second wash, beads were resuspended in an equal volume of 2×SDS sample buffer and stored at −20° C. For Western analysis, bead-bound proteins in sample buffer were boiled for 10 minutes and subjected to electrophoresis on NuPAGE 10% Bis-Tris gels (Invitrogen, Carlsbad, Calif.), transferred to Immobilon-P PVDF membranes (Millipore, Billerica, Mass.), and blotted with rabbit polyclonal anti-Rapt (sc-65; Santa Cruz Biotechnology, Santa Cruz, Calif.).

T1 sequence (Q08722 19-127 limits assumed): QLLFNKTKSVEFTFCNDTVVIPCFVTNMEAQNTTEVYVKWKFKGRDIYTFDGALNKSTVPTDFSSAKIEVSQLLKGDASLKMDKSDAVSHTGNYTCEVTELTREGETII

IC50 [4]: ~100 nM
Compound: CC[C@H](C)[C@H](NC(=O)[C@@H](N)Cc1c[nH]cn1)C(=O)NCC(=O)N[C@@H](Cc1c[nH]c2ccccc12)C(=O)N[C@@H](CCCCN)C(=O)N[C@@H](CC(=O)O)C(=O)N[C@@H](Cc1ccccc1)C(=O)N[C@H](C(=O)N[C@@H](C)C(=O)N[C@@H](Cc1ccc(O)cc1)C(=O)N[C@@H](CCCNC(=N)N)C(=O)N[C@@H](Cc1c[nH]c2ccccc12)C(=O)N[C@@H](CCCNC(=N)N)C(=O)N[C@@H](CC(C)C)C(=O)N[C@@H](CO)C(=O)O)[C@@H](C)O [C6b, HIGWKDFTAYRWRLS] (H-HIGWKDFTAYRWRLS-OH)
NO-stimulated adhesion to type I collagen [5]: blocked in a dose-dependent manner
NO-stimulated cGMP flux [6]: Blocked

IC50 [4]: ~100 nM
Compound: CC[C@H](C)[C@H](NC(=O)CCCC[C@@H]1SC[C@@H]2NC(=O)N[C@@H]21)C(=O)NCC(=O)N[C@@H](Cc1c[nH]c2ccccc12)C(=O)N[C@@H](CCCCN)C(=O)N[C@@H](CC(=O)O)C(=O)N[C@@H](Cc1ccccc1)C(=O)N[C@H](C(=O)N[C@@H](C)C(=O)N[C@@H](Cc1ccc(O)cc1)C(=O)N[C@@H](CCCNC(=N)N)C(=O)O)[C@@H](C)O [C6d, biotin-IGWKDFTAYR] (Biotin-IGWKDFTAYR-OH)
NO delay of thrombin-stimulated aggregation [8]: completely reversed
NO-stimulated adhesion to type I collagen [5]: blocked in a dose-dependent manner
NO-stimulated cGMP flux [6]: Blocked

The remaining lines, values behind:

Compound: E3CaG1: recombinant C-terminal regions of TSP1
NO-driven cGMP production [1]: potently inhibited
concentration that inhibited NO-driven HASMC adhesion to collagen [2]: > 0.4 nM
NO-stimulated cGMP levels in HASMC [3]: equipotent dose-dependent inhibitors

Compound: CC[C@H](C)[C@H](N)C(=O)NCC(=O)N[C@@H](Cc1c[nH]c2ccccc12)C(=O)N[C@@H](CCCCN)C(=O)N[C@@H](CC(=O)O)C(=O)N[C@@H](Cc1ccc(O)cc1)C(=O)N[C@H](C(=O)N[C@@H](C)C(=O)N[C@@H](Cc1ccc(O)cc1)C(=O)N[C@@H](CCCNC(=N)N)C(=O)O)[C@@H](C)O [compound 37298, IGWKDYTAYR] (H-IGWKDYTAYR-OH)
inhibition of binding of the SIRP IgV domain to CD47 [7]: can inhibit the binding
IC50 [4]: ~100 nM

Compound: N=C(N)NCCC[C@H](N)C(=O)O [L-arginine, reference compound]
platelet cGMP levels [9]: elevated cGMP levels in TSP1-null but not in WT platelets

Compound: Nc1nc2c(nc(Br)n2[C@@H]2O[C@@H]3COP(=O)(O)O[C@H]3[C@H]2O)c(=O)[nH]1 [8Br-cGMP, 8-Bromo cyclic guanine monophosphate, reference compound]
thrombin-induced aggregation ([10]; TSP1-null platelets): rendered TSP1-null platelets resistant to thrombin-induced aggregation
thrombin-induced aggregation ([10]; WT murine platelets): substantially inhibited aggregation of WT murine platelets
VASP phosphorylation at Ser239 [11]: stimulates VASP phosphorylation at Ser239
Rap1 activation (GTP loading) [12]: inhibited this activation
